From US11117888B2, “Irreversible inhibitors of pyruvate kinase M2 and the use thereof” (China Medical University, priority 2020, dated 2021) come the findings set out here.

Type in all cases: cell-based, human
Assay [1] relates to lung cancer cell lines. Put plainly: MTT cell viability assay, panel of lung cancer cell lines. The source says: Cell lines, cell culture, biochemical reagents, and antibodies. MiaPaCa-2, AsPC-1, and Panc-1 human pancreatic cancer cells, MCF-7 and MDA-MB-231 breast cancer cells, SCC4 and SCC2059 oral cancer cells, PC-3 and LNCaP prostate cancer cells, H157, H460, H1975, PC-9 and H1650 lung cancer cells were obtained from the American Type Culture Collection (ATCC, Manassas, Va.). All these cells were maintained in recommended growth medium (RPMI 1640 or DMEM) supplemented with 10% fetal bovine serum (FBS) (Invitrogen, Carlsbad, Calif., USA) and antibiotics at 37° C. in a humidified incubator containing 5% CO2. For SILAC experiments, PC-9 cells were grown in SILAC DMEM medium (Thermo Fisher) supplemented with 10% dialyzed FBS and 100 μg/mL each of unlabeled L-arginine and L-lysine (light medium) or ^13C/^15N stable isotope-labeled L-arginine and L-lysine (heavy medium). […]
Cell viability assays. Drug effects on cell viability was assessed by 3-(4,5-dimethylthiazol-2-yl)-2,5-diphenyltetrazolium bromide ([…]) assays. […] The medium was then removed from each well and replaced with DMSO to dissolve the reduced MTT dye for subsequent colorimetric measurement of absorbance at 560 nm. Cell viabilities are expressed as percentages of viable cells relative to the corresponding vehicle-treated control group.
A general note: Formazan colour is commonly taken as a measure of viable cells.

Assay [2] concerns PC-9 cells. Kind of assay: ABPP-SILAC proteomic target identification. To be noted: 1 μM, 1 hour, LC-MS/MS. How it is done:
As part of our effort to identify compound 1's target(s), we embarked on the use of compound 2 as an ABPP probe to conduct SILAC-based proteomic analysis. […] In this experiment, PC-9 cells were grown in cultural medium supplemented with unlabeled L-arginine and L-lysine (light medium) versus ^13C/^15N stable isotope-labeled L-arginine and L-lysine (heavy medium), generating two populations of cells (light versus heavy cells). Heavy PC-9 cells were then exposed to the ABPP (1 μM) for 1 hour to allow intracellular labelling of target proteins, while light cells were treated with DMSO vehicle under the same condition. […] These peptide mixtures were analyzed by liquid chromatography-tandem mass spectrometry (LC-MS/MS), and the resulting data were searched against various primary sequence databases by using the Mascot search engine. […]
SILAC analysis and click chemistry. […] The supernatant was transferred to a 1.5 mL microfuge tube, and the protein concentration was determined by the BCA protein assay (Thermo Fisher Scientific) and then normalized to 1 mg/mL. […]
Proteomic data analysis. Putative target proteins of compound 1 and protein-protein interaction network were identified and analyzed, respectively, through a web-based search of the STRING database (https://string-db.org/). […]

Assay [3] deals with pyruvate kinase activity in PC-9 cells. Put plainly: Pyruvate kinase activity assay in PC-9 cells. The following applies: 0.25 μM, 6 hours, relative to vehicle control. How it is done: Pyruvate kinase activity assays. PC-9 cells were seeded into 6 cm dishes at a concentration of 5×10^5 cells/mL. After 24 hours, cells were treated with 0.25 μM compound 1 or DMSO for 6 hours. The pyruvate kinase activity of compound 1-treated PC-9 and vehicle control cells was measured by using a commercial colorimetric assay kit from BioVision (Milpitas, Calif., USA) according to the manufacturer's protocol. In addition, to verify the specificity of compound 1 toward PKM2 versus PKM1, the inhibition of the kinase activity of recombinant PKM1 (SRP0415, Sigma-Aldrich) and recombinant PKM2 (SAE0021, Sigma-Aldrich) by compound 1 was conducted using the aforementioned assay kit.

Assay [4] concerns PKM2, EGFR, Stat3, β-catenin in PC-9 cells. Put plainly: Immunoblot analysis of oncogenic effectors in PC-9 cells. To be noted: Western blot, 24 hours. How it is done:
Immunoblot analysis. PC-9 cells were seeded into 6 cm dish at a concentration of 5×10^5 cells/mL. After 24 hours, cells were treated with 0-1 μM compound 1 or DMSO alone for 24 hours. The cells were harvested at 24 hours, and protein extractions were carried out. The protein lysate was subjected to 10% SDS-PAGE and transferred to a nitrocellulose membrane (GE Healthcare Life Sciences). Protein expression was analyzed by Western blotting using primary antibodies against PKM2, EGFR, p-STAT3, STAT3, p-β-catenin (Cell Signaling Technology), β-catenin (Santa Cruz Biotechnology) and β-actin (Sigma-Aldrich), followed by incubation with horseradish peroxidase-conjugated secondary (Jackson ImmunoResearch Laboratories). Specific proteins were detected by chemiluminescence using ECL Plus Western Blotting Detection Reagents (GE Healthcare Biosciences).

Molecules are shown by their SMILES.

As to `C#CCOc1ccc(-c2ccc(-c3cc(CCC(=O)NC)nn3-c3ccc(NC(=O)C#C)cc3)cc2)cc1` [compound 2, N-(4-(3-(3-(Methylamino)-3-oxopropyl)-5-(4′-(prop-2-yn-1-yloxy)-[1,1′-biphenyl]-4-yl)-1H-pyrazol-1-yl)phenyl)propiolamide], the “antiproliferative effect in lung cancer cell lines” value in assay [1] is “pattern of growth inhibition similar to that of compound 1”. Further, the “protein targets labelled by ABPP probe” value in assay [2] is given as “the protein with the highest matching score was the 58 kDa PKM2”.
For the compound `C#CC(=O)Nc1ccc(-n2nc(CCc3nnc(C)o3)cc2-c2ccc(-c3ccc(C(F)(F)F)cc3)cc2)cc1` [compound 3], the “antiproliferative effect in lung cancer cell lines” value in assay [1] is listed as “high antiproliferative potencies”. For the same compound, the “pyruvate kinase activity in cells” value in assay [3] was “equipotent in suppressing PKM2 kinase activity relative to compound 1”. Besides, in assay [4], the “expression and/or phosphorylation of PKM2, EGFR, Stat3, β-catenin” value is on record as “high efficacy in suppressing the phosphorylation/expression of various oncogenic biomarkers”.
